Columns and labels:
Assay type in all cases: functional
MDA-MB-231 = assay: Growth inhibition of human MDA-MB-231 cells assessed as cell growth at 10^-6 M by sulforhodamine B assay; details: read-out: Activity
M14 [1] = assay: Growth inhibition of human M14 cells assessed as cell growth at 10^-8 M by sulforhodamine B assay; details: read-out: Activity
M14 [2] = assay: Growth inhibition of human M14 cells by sulforhodamine B assay
A498 = assay: Growth inhibition of human A498 cells assessed as cell growth at 10^-8 M by sulforhodamine B assay; details: read-out: Activity
SK-OV-3 [3] = assay: Growth inhibition of human SKOV3 cells assessed as cell growth at 10^-6 M by sulforhodamine B assay; details: read-out: Activity
K562 [4] = assay: Growth inhibition of human K562 cells assessed as cell growth at 10^-6 M by sulforhodamine B assay; details: read-out: Activity
CAKI-1 [5] = assay: Growth inhibition of human CAKI-1 cells by sulforhodamine B assay
[6] = Growth inhibition of human Hs 578T cells assessed as cell growth at 10^-7 M by sulforhodamine B assay; details: read-out: Activity
NCI-H460 = assay: Growth inhibition of human NCI-H460 cells assessed as cell growth at 10^-8 M by sulforhodamine B assay; details: read-out: Activity
MCF7 = assay: Growth inhibition of human MCF7 cells assessed as cell growth at 10^-8 M by sulforhodamine B assay; details: read-out: Activity
Malme-3M [7] = assay: Growth inhibition of human MALME-3M cells assessed as cell growth at 10^-7 M by sulforhodamine B assay; details: read-out: Activity
RPMI-8226 = assay: Growth inhibition of human RPMI8226 cells assessed as cell growth at 10^-6 M by sulforhodamine B assay; details: read-out: Activity
NCI-H322M = assay: Growth inhibition of human NCI-H322M cells assessed as cell growth at 10^-8 M by sulforhodamine B assay; details: read-out: Activity
SK-MEL-5 = assay: Growth inhibition of human SK-MEL-5 cells by sulforhodamine B assay
Malme-3M [8] = assay: Growth inhibition of human MALME-3M cells assessed as cell growth at 10^-4 M by sulforhodamine B assay; details: read-out: Activity
SK-OV-3 [9] = assay: Growth inhibition of human SKOV3 cells assessed as cell growth at 10^-4 M by sulforhodamine B assay; details: read-out: Activity
SK-OV-3 [10] = assay: Growth inhibition of human SKOV3 cells assessed as cell growth at 10^-8 M by sulforhodamine B assay; details: read-out: Activity
SNB-19 = assay: Growth inhibition of human SNB19 cells assessed as cell growth at 10^-4 M by sulforhodamine B assay; details: read-out: Activity
HCT-15 = assay: Growth inhibition of human HCT15 cells by sulforhodamine B assay
MDA-MB-435 = assay: Growth inhibition of human MDA-MB-435 cells assessed as cell growth at 10^-4 M by sulforhodamine B assay; details: read-out: Activity
COLO 205 = assay: Growth inhibition of human COLO205 cells by sulforhodamine B assay
K562 [11] = assay: Growth inhibition of human K562 cells assessed as cell growth at 10^-8 M by sulforhodamine B assay; details: read-out: Activity
MOLT-4 = assay: Growth inhibition of human MOLT4 cells assessed as cell growth at 10^-4 M by sulforhodamine B assay; details: read-out: Activity
SNB-75 = assay: Growth inhibition of human SNB75 cells by sulforhodamine B assay
OVCAR-4 = assay: Growth inhibition of human OVCAR4 cells assessed as cell growth at 10^-6 M by sulforhodamine B assay; details: read-out: Activity
OVCAR-5 [12] = assay: Growth inhibition of human OVCAR5 cells by sulforhodamine B assay
OVCAR-5 [13] = assay: Growth inhibition of human OVCAR5 cells assessed as cell growth at 10^-4 M by sulforhodamine B assay; details: read-out: Activity
HOP-62 = assay: Growth inhibition of human HOP62 cells assessed as cell growth at 10^-8 M by sulforhodamine B assay; details: read-out: Activity
SR = assay: Growth inhibition of human SR cells by sulforhodamine B assay
NCI-H226 = assay: Growth inhibition of human NCI-H226 cells by sulforhodamine B assay
KM12 = assay: Growth inhibition of human KM12 cells assessed as cell growth at 10^-8 M by sulforhodamine B assay; details: read-out: Activity
PC-3 [14] = assay: Growth inhibition of human PC3 cells by sulforhodamine B assay
U-251 = assay: Growth inhibition of human U251 cells by sulforhodamine B assay
OVCAR-8 = assay: Growth inhibition of human OVCAR8 cells assessed as cell growth at 10^-4 M by sulforhodamine B assay; details: read-out: Activity
CAKI-1 [15] = assay: Growth inhibition of human CAKI-1 cells assessed as cell growth at 10^-6 M by sulforhodamine B assay; details: read-out: Activity
NCI-H23 = assay: Growth inhibition of human NCI-H23 cells assessed as cell growth at 10^-6 M by sulforhodamine B assay; details: read-out: Activity
M14 [16] = assay: Growth inhibition of human M14 cells assessed as cell growth at 10^-6 M by sulforhodamine B assay; details: read-out: Activity
PC-3 [17] = assay: Growth inhibition of human PC3 cells assessed as cell growth at 10^-7 M by sulforhodamine B assay; details: read-out: Activity
[18] = read-out: LC50 (the source's name)
[19] = read-out: pLC50 (the source's name) (converted)

Which results are given for `CC(C)=CC(=O)O[C@@H]1CC(C)(C)C[C@H]2C3=CC[C@@H]4[C@@]5(C)CCC(=O)C(C)(C)[C@@H]5CC[C@@]4(C)[C@]3(C)CC[C@@]12C(=O)O`?
growth at 1 µM (MDA-MB-231): 76%; growth at 0.01 µM (M14 [1]): 98%; GI50 (M14 [2]; read-out: GI50): 6.52 µM; CC50 (M14 [2]; [18]): 76.6 µM; TGI (M14 [2]; read-out: TGI): 25.2 µM; GI50 (M14 [2]; read-out: pGI50 (converted)): 6.46 µM; CC50 (M14 [2]; [19]): 75.9 µM; TGI (M14 [2]; read-out: pTGI (converted)): 25.1 µM; growth at 0.01 µM (A498): 86%; growth at 1 µM (SK-OV-3 [3]): 108%; growth at 1 µM (K562 [4]): 75%; GI50 (CAKI-1 [5]; read-out: GI50): 3.84 µM; CC50 (CAKI-1 [5]; [18]): > 100 µM; TGI (CAKI-1 [5]; read-out: TGI): 84.8 µM; GI50 (CAKI-1 [5]; read-out: pGI50 (converted)): 3.8 µM; CC50 (CAKI-1 [5]; [19]): > 100 µM; TGI (CAKI-1 [5]; read-out: pTGI (converted)): 85.1 µM; growth at 0.1 µM [6]: 93%; growth at 0.01 µM (NCI-H460): 105%; growth at 0.01 µM (MCF7): 87%; growth at 0.1 µM (Malme-3M [7]): 90%; growth at 1 µM (RPMI-8226): 58%; growth at 0.01 µM (NCI-H322M): 93%; GI50 (SK-MEL-5; read-out: GI50): 1.5 µM; CC50 (SK-MEL-5; [18]): 46.2 µM; TGI (SK-MEL-5; read-out: TGI): 11.7 µM; GI50 (SK-MEL-5; read-out: pGI50 (converted)): 1.51 µM; CC50 (SK-MEL-5; [19]): 45.7 µM; TGI (SK-MEL-5; read-out: pTGI (converted)): 11.7 µM; growth at 100 µM (Malme-3M [8]): -5%; growth at 100 µM (SK-OV-3 [9]): 15%; growth at 0.01 µM (SK-OV-3 [10]): 106%; growth at 100 µM (SNB-19): 7%; GI50 (HCT-15; read-out: GI50): 1.29 µM; LC50 (50% lethal concentration) (HCT-15; read-out: LC50): > 100 µM; TGI (HCT-15; read-out: TGI): 15.6 µM; GI50 (HCT-15; read-out: pGI50 (converted)): 1.29 µM; LC50 (50% lethal concentration) (HCT-15; read-out: pLC50 (converted)): > 100 µM; TGI (HCT-15; read-out: pTGI (converted)): 15.5 µM; growth at 100 µM (MDA-MB-435): 1%; GI50 (COLO 205; read-out: GI50): 3.61 µM; LC50 (COLO 205; read-out: LC50): 49.1 µM; TGI (COLO 205; read-out: TGI): 12.3 µM; GI50 (COLO 205; read-out: pGI50 (converted)): 3.63 µM; LC50 (COLO 205; read-out: pLC50 (converted)): 49 µM; TGI (COLO 205; read-out: pTGI (converted)): 12.3 µM; growth at 0.01 µM (K562 [11]): 116%; growth at 100 µM (MOLT-4): -21%; GI50 (SNB-75; read-out: GI50): 7.71 µM; CC50 (SNB-75; [18]): > 100 µM; TGI (SNB-75; read-out: TGI): 39.2 µM; GI50 (SNB-75; read-out: pGI50 (converted)): 7.76 µM; CC50 (SNB-75; [19]): > 100 µM; TGI (SNB-75; read-out: pTGI (converted)): 38.9 µM; growth at 1 µM (OVCAR-4): 83%; GI50 (OVCAR-5 [12]; read-out: GI50): 6.53 µM; CC50 (OVCAR-5 [12]; [18]): > 100 µM; TGI (OVCAR-5 [12]; read-out: TGI): 32.7 µM; GI50 (OVCAR-5 [12]; read-out: pGI50 (converted)): 6.61 µM; CC50 (OVCAR-5 [12]; [19]): > 100 µM; TGI (OVCAR-5 [12]; read-out: pTGI (converted)): 32.4 µM; growth at 100 µM (OVCAR-5 [13]): -39%; growth at 0.01 µM (HOP-62): 93%; GI50 (SR; read-out: GI50): 3.75 µM; CC50 (SR; [18]): > 100 µM; TGI (SR; read-out: TGI): 33.8 µM; GI50 (SR; read-out: pGI50 (converted)): 3.72 µM; CC50 (SR; [19]): > 100 µM; TGI (SR; read-out: pTGI (converted)): 33.9 µM; GI50 (NCI-H226; read-out: GI50): 5.68 µM; LC50 (NCI-H226; read-out: LC50): > 100 µM; TGI (NCI-H226; read-out: TGI): > 100 µM; GI50 (NCI-H226; read-out: pGI50 (converted)): 5.62 µM; LC50 (NCI-H226; read-out: pLC50 (converted)): > 100 µM; TGI (NCI-H226; read-out: pTGI (converted)): > 100 µM; growth at 0.01 µM (KM12): 101%; GI50 (PC-3 [14]; read-out: GI50): 1.55 µM; CC50 (PC-3 [14]; [18]): > 100 µM; TGI (PC-3 [14]; read-out: TGI): 89.1 µM; GI50 (PC-3 [14]; read-out: pGI50 (converted)): 1.55 µM; CC50 (PC-3 [14]; [19]): > 100 µM; TGI (PC-3 [14]; read-out: pTGI (converted)): 89.1 µM; GI50 (U-251; read-out: GI50): 2.9 µM; CC50 (U-251; [18]): > 100 µM; TGI (U-251; read-out: TGI): 20.7 µM; GI50 (U-251; read-out: pGI50 (converted)): 2.88 µM; CC50 (U-251; [19]): > 100 µM; TGI (U-251; read-out: pTGI (converted)): 20.9 µM; growth at 100 µM (OVCAR-8): 11%; growth at 1 µM (CAKI-1 [15]): 87%; growth at 1 µM (NCI-H23): 88%; growth at 1 µM (M14 [16]): 87%; growth at 0.1 µM (PC-3 [17]): 86%

Source: ChEMBL document CHEMBL2413072, “Synthesis and in vitro anticancer studies of novel C-2 arylidene congeners of lantadenes” (2013)
